Data as given in ChEMBL document CHEMBL6153030, “Design, synthesis, and biological evaluation of novel pleuromutilin derivatives with methicillin-resistant Staphylococcus aureus -targeting phenol linker groups” (Eur J Med Chem, 2025).
In brackets after ≈: the same amount, converted by molar mass. Activity calls are given as the source filed them. The calls are words filed in the database; no cut-off is given here.

What was measured:
Staphylococcus aureus [1] = assay: Antibacterial activity against Staphylococcus aureus ATCC 29213 assessed as inhibition of bacterial growth incubated for 96 hrs by broth microdilution method; type: functional
Staphylococcus aureus [2] = assay: Antibacterial activity against methicillin-resistant Staphylococcus aureus ATCC43300 assessed as inhibition of bacterial growth incubated for 96 hrs by broth microdilution method; type: functional
Streptococcus pneumoniae = assay: Antibacterial activity against Streptococcus pneumoniae ATCC 49619 assessed as inhibition of bacterial growth incubated for 96 hrs by broth microdilution method; type: functional
[3] = system: Staphylococcus epidermidis; assay: Antibacterial activity against methicillin-resistant Staphylococcus epidermidis ATCC 51625 assessed as inhibition of bacterial growth incubated for 96 hrs by broth microdilution method; type: functional
Escherichia coli = assay: Antibacterial activity against Escherichia coli ATCC 25922 assessed as inhibition of bacterial growth incubated for 96 hrs by broth microdilution method; type: functional
Staphylococcus aureus [4] = assay: Antibacterial activity against methicillin-resistant Staphylococcus aureus ATCC43300 assessed as inhibition of bacterial growth measured on day 8; type: functional; conditions: ATCC43300, 192 h, time 8 day
Staphylococcus aureus [5] = assay: Antibacterial activity against methicillin-resistant Staphylococcus aureus ATCC43300 assessed as inhibition of bacterial growth measured on day 20; type: functional; conditions: ATCC43300, 480 h, time 20 day
[6] = Toxicity against Zebrafish assessed as reduction of survival of embryos measured after 96 hrs; parameters: species or system Danio rerio; conditions: in vivo
HEK293 = assay: Cytotoxicity against HEK293 cells assessed as reduction in cell survival upto 120 ug/ml incubated for 6 hrs by CCK8 assay; type: toxicity, cell-based; conditions: human, hek293, 6 h, dose < 120 µg/ml
HepG2 = assay: Cytotoxicity against human HepG2 cells assessed as reduction in cell survival at 250 ug/ml incubated for 6 hrs by CCK8 assay; type: toxicity, cell-based; conditions: hepg2, 6 h, dose 250 µg/ml
Staphylococcus aureus [7] = assay: In vivo antibacterial activity against methicillin-resistant Staphylococcus aureus ATCC43300 infected in Kunming mouse assessed as increase in animal survival rate administered ip at 1 hr post-infection; type: functional; conditions: ATCC43300, 1 h
Staphylococcus aureus [8] = assay: Bactericidal activity against methicillin-resistant Staphylococcus aureus ATCC 43300 assessed as bacterial killing at 6XMIC incubated for 96 hrs in broth followed by culturing on agar plate for 12 hrs by time-kill kinetics analysis; type: functional; conditions: time 108 hrs
Staphylococcus aureus [9] = assay: Antibacterial activity against methicillin-resistant Staphylococcus aureus ATCC43300 assessed as inhibition of bacterial growth measured after 21 days; type: functional; conditions: ATCC43300, 504 h, time 21 day
[10] = Toxicity against zebrafish embryo assessed as teratogenic effect at 128 ug/ml measured after 96 hrs by microscopic analysis; parameters: species or system Danio rerio; conditions: in vivo, dose 128 µg/ml
[11] = biological target: T1, 70S ribosome (Staphylococcus aureus) (UniProt Q2FW31+P0A0H0+Q2FW30+Q2FW19+Q2FYU5+Q2G2Q1+Q2FZ45+Q2FW15+Q2G111+Q2FW10+Q2FXY6+Q2FXZ7+Q2FZ25+Q2FW12+Q2FXK6+Q2FW23+Q2G113+P48940+Q2FW20+Q2FW39+Q2FYF9+Q2G0N9+P0A0F4+Q2FW38+Q2FW16+P0A0F8+Q2FW13+Q2FW33+Q2FW22+Q2FZ42+Q2G0P0+Q2FXQ1+Q2FXS8+Q2FW11+Q2FW08+Q2FW17+Q2FXT0+Q2FZ60+Q2FW14+P60430+P0A0G2+Q2FWD8+Q2FZF1+Q2FYU6+Q2FY22+Q2FUQ0+Q2FXQ0+Q2FW29+Q2FW06+Q2FW07+Q2FW18+Q2FW21+P48860+Q2G2T3); assay: Inhibition of ribosomal peptidyl transferase centre in methicillin-resistant Staphylococcus aureus ATCC43300 assessed as inhibition of bacterial cell division at 4XMIC by scanning electron microscopy; type: functional
[12] = biological target: T1, 70S ribosome (Staphylococcus aureus); assay: Inhibition of ribosomal peptidyl transferase centre in methicillin-resistant Staphylococcus aureus ATCC43300 assessed as bacterial cell membrane damage at 4XMIC by scanning electron microscopy; type: functional

Row | Structure (SMILES) | MIC (Staphylococcus aureus [1]) [µg/mL] | MIC (Staphylococcus aureus [2]) [µg/mL] | MIC (Streptococcus pneumoniae) [µg/mL] | MIC [3] [µg/mL] | MIC (Escherichia coli) [µg/mL] | also measured
1 | C=CCCOc1ccccc1SCC(=O)O[C@@H]1C[C@@](C)(C=C)[C@@H](O)[C@H](C)[C@]23CCC(=O)[C@H]2[C@@]1(C)[C@H](C)CC3 | < 0.031 | 0.125 (≈ 0.231 µM) | < 0.031 | 0.031 (≈ 0.0573 µM) | > 64 | 
2 | C=CCCOc1ccc(SCC(=O)O[C@@H]2C[C@@](C)(C=C)[C@@H](O)[C@H](C)[C@]34CCC(=O)[C@H]3[C@@]2(C)[C@H](C)CC4)cc1 | 0.25 (≈ 0.462 µM) | 0.25 (≈ 0.462 µM) | 0.125 (≈ 0.231 µM) | 0.125 (≈ 0.231 µM) | > 64 | 
3 | C=C[C@]1(C)C[C@@H](OC(=O)CSc2ccc(OCC#CC)cc2)[C@]2(C)[C@H](C)CC[C@]3(CCC(=O)[C@H]32)[C@@H](C)[C@@H]1O | 0.25 (≈ 0.464 µM) | 0.25 (≈ 0.464 µM) | 0.062 (≈ 0.115 µM) | 0.125 (≈ 0.232 µM) | > 64 | 
4 | C=C[C@]1(C)C[C@@H](OC(=O)CSc2ccc(OCc3ccc(C)cc3)cc2)[C@]2(C)[C@H](C)CC[C@]3(CCC(=O)[C@H]32)[C@@H](C)[C@@H]1O | 16 (≈ 27.1 µM) | 16 (≈ 27.1 µM) | 16 (≈ 27.1 µM) | 16 (≈ 27.1 µM) | > 64 | 
5 | C=C[C@]1(C)C[C@@H](OC(=O)CSc2ccccc2O)[C@]2(C)[C@H](C)CC[C@]3(CCC(=O)[C@H]32)[C@@H](C)[C@@H]1O | 0.125 (≈ 0.257 µM) | 0.125 (≈ 0.257 µM) | 0.125 (≈ 0.257 µM) | 0.125 (≈ 0.257 µM) | > 64 | 
6 | C=C[C@]1(C)C[C@@H](OC(=O)CSc2ccccc2OCC#CC)[C@]2(C)[C@H](C)CC[C@]3(CCC(=O)[C@H]32)[C@@H](C)[C@@H]1O | 0.125 (≈ 0.232 µM) | 0.125 (≈ 0.232 µM) | < 0.031 | 0.125 (≈ 0.232 µM) | > 64 | 
7 | C=C[C@]1(C)C[C@@H](OC(=O)CSc2ccc(OCc3ccc(-c4ccccc4C#N)cc3)cc2)[C@]2(C)[C@H](C)CC[C@]3(CCC(=O)[C@H]32)[C@@H](C)[C@@H]1O | 4 (≈ 5.9 µM) | 2 (≈ 2.95 µM) | 2 (≈ 2.95 µM) | 4 (≈ 5.9 µM) | > 64 | 
8 | C=C[C@]1(C)C[C@@H](OC(=O)CSc2ccccc2OCCCC)[C@]2(C)[C@H](C)CC[C@]3(CCC(=O)[C@H]32)[C@@H](C)[C@@H]1O | 0.5 (≈ 0.921 µM) | 0.5 (≈ 0.921 µM) | 0.5 (≈ 0.921 µM) | 0.25 (≈ 0.461 µM) | > 64 | 
9 | C=C[C@]1(C)C[C@@H](OC(=O)CSc2ccc(O)cc2)[C@]2(C)[C@H](C)CC[C@]3(CCC(=O)[C@H]32)[C@@H](C)[C@@H]1O | 0.062 (≈ 0.127 µM) | 0.062 (≈ 0.127 µM) | 0.125 (≈ 0.257 µM) | 0.062 (≈ 0.127 µM) | > 64 | 
10 | C=C[C@]1(C)C[C@@H](OC(=O)CSc2cccc(OCC#CC)c2)[C@]2(C)[C@H](C)CC[C@]3(CCC(=O)[C@H]32)[C@@H](C)[C@@H]1O | 0.125 (≈ 0.232 µM) | 0.125 (≈ 0.232 µM) | < 0.031 | 0.125 (≈ 0.232 µM) | > 64 | 
11 | C=C[C@]1(C)C[C@@H](OC(=O)CSCCN(CC)CC)[C@]2(C)[C@H](C)CC[C@]3(CCC(=O)[C@H]32)[C@@H](C)[C@@H]1O [TIAMULIN] | 0.5 (≈ 1.01 µM) | 0.5 (≈ 1.01 µM) | 0.5 (≈ 1.01 µM) | 0.25 (≈ 0.506 µM) | > 64 | MIC (Staphylococcus aureus [4]): 8 µg/mL (≈ 16.2 µM); MIC (Staphylococcus aureus [5]): 32 µg/mL (≈ 64.8 µM); LC50 at 96 h [6]: 24 µg/mL (≈ 48.6 µM); Activity (HEK293): Toxic; Activity (HepG2): Toxic; ED50 (Staphylococcus aureus [7]): 11.4 mg/kg
12 | C=C[C@]1(C)C[C@@H](OC(=O)CSc2ccc(OCc3ccc(C(=O)OC(C)(C)C)cc3)cc2)[C@]2(C)[C@H](C)CC[C@]3(CCC(=O)[C@H]32)[C@@H](C)[C@@H]1O | 4 (≈ 5.91 µM) | 32 (≈ 47.3 µM) | 8 (≈ 11.8 µM) | 8 (≈ 11.8 µM) | > 64 | 
13 | C=C[C@]1(C)C[C@@H](OC(=O)CSc2ccccc2OCc2ccc(C(=O)OC(C)(C)C)cc2)[C@]2(C)[C@H](C)CC[C@]3(CCC(=O)[C@H]32)[C@@H](C)[C@@H]1O | 16 (≈ 23.6 µM) | 32 (≈ 47.3 µM) | 16 (≈ 23.6 µM) | 16 (≈ 23.6 µM) | > 64 | 
14 | C=CCCOc1cccc(SCC(=O)O[C@@H]2C[C@@](C)(C=C)[C@@H](O)[C@H](C)[C@]34CCC(=O)[C@H]3[C@@]2(C)[C@H](C)CC4)c1 | 0.5 (≈ 0.925 µM) | 0.5 (≈ 0.925 µM) | 0.5 (≈ 0.925 µM) | 0.25 (≈ 0.462 µM) | > 64 | 
15 | C=C[C@]1(C)C[C@@H](OC(=O)CSc2ccccc2OCc2ccc(-c3ccccc3C#N)cc2)[C@]2(C)[C@H](C)CC[C@]3(CCC(=O)[C@H]32)[C@@H](C)[C@@H]1O | 2 (≈ 2.95 µM) | 2 (≈ 2.95 µM) | 2 (≈ 2.95 µM) | 4 (≈ 5.9 µM) | > 64 | 
16 | C=C[C@]1(C)C[C@@H](OC(=O)CSc2cccc(OCc3ccc(C)cc3)c2)[C@]2(C)[C@H](C)CC[C@]3(CCC(=O)[C@H]32)[C@@H](C)[C@@H]1O | 16 (≈ 27.1 µM) | 16 (≈ 27.1 µM) | 16 (≈ 27.1 µM) | 32 (≈ 54.2 µM) | > 64 | 
17 | C=C[C@]1(C)C[C@@H](OC(=O)CSc2cccc(OCC(=O)N3CCS(=O)(=O)CC3)c2)[C@]2(C)[C@H](C)CC[C@]3(CCC(=O)[C@H]32)[C@@H](C)[C@@H]1O | < 0.031 | < 0.031 | 0.125 (≈ 0.189 µM) | < 0.031 | > 64 | Activity (Staphylococcus aureus [8]): 99.99%; MIC (Staphylococcus aureus [9]): 4 µg/mL (≈ 6.04 µM); LC50 at 96 h [6]: 149 µg/mL (≈ 225 µM); Activity [10]: Non-toxic; Activity (HEK293): Toxic; Activity (HepG2): Toxic; inhibition [11]: Active; inhibition [12]: Active
18 | C=C[C@]1(C)C[C@@H](OC(=O)CSc2ccc(OCC(=O)N3CCS(=O)(=O)CC3)cc2)[C@]2(C)[C@H](C)CC[C@]3(CCC(=O)[C@H]32)[C@@H](C)[C@@H]1O | < 0.031 | < 0.031 | 0.25 (≈ 0.378 µM) | < 0.031 | > 64 | 
19 | C=C[C@]1(C)C[C@@H](OC(=O)CSc2ccc(OCCCC)cc2)[C@]2(C)[C@H](C)CC[C@]3(CCC(=O)[C@H]32)[C@@H](C)[C@@H]1O | 2 (≈ 3.68 µM) | 1 (≈ 1.84 µM) | 0.5 (≈ 0.921 µM) | 0.5 (≈ 0.921 µM) | > 64 | 
20 | C=C[C@]1(C)C[C@@H](OC(=O)CSc2ccccc2OCc2ccc(C)cc2)[C@]2(C)[C@H](C)CC[C@]3(CCC(=O)[C@H]32)[C@@H](C)[C@@H]1O | 16 (≈ 27.1 µM) | 32 (≈ 54.2 µM) | 16 (≈ 27.1 µM) | 32 (≈ 54.2 µM) | > 64 | 
21 | C=C[C@]1(C)C[C@@H](OC(=O)CSc2cccc(OCc3ccc(C(=O)OC(C)(C)C)cc3)c2)[C@]2(C)[C@H](C)CC[C@]3(CCC(=O)[C@H]32)[C@@H](C)[C@@H]1O | 4 (≈ 5.91 µM) | 32 (≈ 47.3 µM) | 8 (≈ 11.8 µM) | 8 (≈ 11.8 µM) | > 64 | 
22 | C=C[C@]1(C)C[C@@H](OC(=O)CSc2cccc(OCc3ccc(-c4ccccc4C#N)cc3)c2)[C@]2(C)[C@H](C)CC[C@]3(CCC(=O)[C@H]32)[C@@H](C)[C@@H]1O | 4 (≈ 5.9 µM) | 2 (≈ 2.95 µM) | 2 (≈ 2.95 µM) | 8 (≈ 11.8 µM) | > 64 | 
23 | C=C[C@]1(C)C[C@@H](OC(=O)CSc2cccc(O)c2)[C@]2(C)[C@H](C)CC[C@]3(CCC(=O)[C@H]32)[C@@H](C)[C@@H]1O | 0.125 (≈ 0.257 µM) | 0.062 (≈ 0.127 µM) | 0.125 (≈ 0.257 µM) | 0.125 (≈ 0.257 µM) | > 64 | 
24 | C=C[C@]1(C)C[C@@H](OC(=O)CSc2cccc(OCCCC)c2)[C@]2(C)[C@H](C)CC[C@]3(CCC(=O)[C@H]32)[C@@H](C)[C@@H]1O | 2 (≈ 3.68 µM) | 2 (≈ 3.68 µM) | 2 (≈ 3.68 µM) | 1 (≈ 1.84 µM) | > 64 | 
